Data taken from ChEMBL document CHEMBL1201862, “PubChem BioAssay data set” (2004).
Calls of active or inactive are those of the source.

Assays:
[1] = target: T1, Sentrin-specific protease 7 (Homo sapiens, UniProt Q9BQF6); format: functional;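 also: Luminescence-based dose-response confirmation of ultra-high-throughput screening hits, measuring inhibition of SENP7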
T1 sequence (Q9BQF6 whole entry): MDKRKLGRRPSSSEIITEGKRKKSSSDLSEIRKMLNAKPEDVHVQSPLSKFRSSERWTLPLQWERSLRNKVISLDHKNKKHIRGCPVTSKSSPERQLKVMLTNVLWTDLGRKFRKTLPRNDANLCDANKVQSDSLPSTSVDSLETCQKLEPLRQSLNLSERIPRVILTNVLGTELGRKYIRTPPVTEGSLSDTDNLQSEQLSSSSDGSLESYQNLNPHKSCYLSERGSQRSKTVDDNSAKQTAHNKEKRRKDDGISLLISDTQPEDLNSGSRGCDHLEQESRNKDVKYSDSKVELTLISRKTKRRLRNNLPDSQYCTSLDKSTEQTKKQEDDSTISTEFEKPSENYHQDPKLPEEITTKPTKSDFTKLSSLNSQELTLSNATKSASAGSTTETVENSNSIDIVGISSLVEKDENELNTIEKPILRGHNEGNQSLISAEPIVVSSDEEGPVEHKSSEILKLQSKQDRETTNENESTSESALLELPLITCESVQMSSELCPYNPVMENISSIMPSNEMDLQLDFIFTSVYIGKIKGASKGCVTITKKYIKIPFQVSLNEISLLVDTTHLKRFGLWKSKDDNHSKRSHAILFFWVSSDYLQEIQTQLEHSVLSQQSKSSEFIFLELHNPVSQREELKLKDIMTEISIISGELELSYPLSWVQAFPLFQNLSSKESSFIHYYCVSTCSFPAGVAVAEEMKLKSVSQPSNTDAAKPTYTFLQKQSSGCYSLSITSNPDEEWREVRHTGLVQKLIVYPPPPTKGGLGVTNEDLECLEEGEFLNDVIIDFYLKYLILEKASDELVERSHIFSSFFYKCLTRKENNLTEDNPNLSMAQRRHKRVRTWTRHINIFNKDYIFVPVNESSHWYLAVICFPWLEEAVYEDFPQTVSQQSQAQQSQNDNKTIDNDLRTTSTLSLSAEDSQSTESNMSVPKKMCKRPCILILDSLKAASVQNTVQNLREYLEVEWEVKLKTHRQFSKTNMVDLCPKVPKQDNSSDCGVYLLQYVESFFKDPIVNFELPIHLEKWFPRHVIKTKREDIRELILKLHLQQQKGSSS

[2] = target: T2, Sentrin-specific protease 6 (Homo sapiens, UniProt Q9GZR1); format: functional;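 also: Luminescence-based dose-response confirmatory assay of SENP6 inhibition, following up an ultra-high-throughput screen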
T2 sequence (Q9GZR1 whole entry): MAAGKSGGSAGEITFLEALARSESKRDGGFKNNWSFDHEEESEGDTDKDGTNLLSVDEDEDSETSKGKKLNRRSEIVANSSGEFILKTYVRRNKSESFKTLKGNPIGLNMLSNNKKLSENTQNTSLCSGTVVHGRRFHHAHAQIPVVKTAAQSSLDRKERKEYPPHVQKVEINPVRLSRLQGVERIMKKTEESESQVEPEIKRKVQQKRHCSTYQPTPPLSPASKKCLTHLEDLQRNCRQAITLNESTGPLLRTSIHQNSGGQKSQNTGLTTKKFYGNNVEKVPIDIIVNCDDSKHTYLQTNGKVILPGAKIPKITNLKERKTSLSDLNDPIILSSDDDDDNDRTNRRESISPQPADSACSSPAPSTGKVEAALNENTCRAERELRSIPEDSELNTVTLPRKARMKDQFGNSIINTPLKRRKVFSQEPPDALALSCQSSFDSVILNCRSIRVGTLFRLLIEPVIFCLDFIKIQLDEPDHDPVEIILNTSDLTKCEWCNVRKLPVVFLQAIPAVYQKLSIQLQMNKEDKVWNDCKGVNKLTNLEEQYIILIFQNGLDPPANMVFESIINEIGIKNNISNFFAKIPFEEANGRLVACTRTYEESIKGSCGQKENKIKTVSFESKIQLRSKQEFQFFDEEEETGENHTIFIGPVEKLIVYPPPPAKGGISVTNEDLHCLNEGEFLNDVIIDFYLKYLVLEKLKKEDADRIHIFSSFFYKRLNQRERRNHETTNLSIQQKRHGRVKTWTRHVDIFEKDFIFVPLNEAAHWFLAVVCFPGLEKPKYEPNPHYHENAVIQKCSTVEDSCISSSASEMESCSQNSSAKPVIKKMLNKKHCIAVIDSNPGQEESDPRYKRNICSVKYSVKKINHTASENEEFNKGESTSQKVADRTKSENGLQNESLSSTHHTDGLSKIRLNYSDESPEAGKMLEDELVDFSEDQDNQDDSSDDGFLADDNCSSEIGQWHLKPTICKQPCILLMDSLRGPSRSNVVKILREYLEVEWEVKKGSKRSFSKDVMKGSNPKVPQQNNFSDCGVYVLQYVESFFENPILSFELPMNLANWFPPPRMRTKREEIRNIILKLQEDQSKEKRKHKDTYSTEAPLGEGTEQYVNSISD

[3] = target: T3, Sentrin-specific protease 8 (Homo sapiens, UniProt Q96LD8); format: functional;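 also: luminescence read-out of SENP8 inhibition, dose-response confirmation following an ultra-high-throughput screen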
T3 sequence (Q96LD8 whole entry): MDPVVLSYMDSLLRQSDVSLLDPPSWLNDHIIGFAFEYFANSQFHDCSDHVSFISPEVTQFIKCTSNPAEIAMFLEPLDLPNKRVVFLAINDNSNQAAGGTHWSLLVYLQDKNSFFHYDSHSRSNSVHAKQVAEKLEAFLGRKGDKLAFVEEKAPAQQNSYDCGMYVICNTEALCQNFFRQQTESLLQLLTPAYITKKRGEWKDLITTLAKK

Caspase-3 = target: T4, Caspase-3 (Homo sapiens, UniProt P42574); format: functional;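 also: Dose-response selectivity test against caspase-3 for candidate inhibitors of sentrin-specific proteases (SENPs)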
T4 sequence (P42574 whole entry): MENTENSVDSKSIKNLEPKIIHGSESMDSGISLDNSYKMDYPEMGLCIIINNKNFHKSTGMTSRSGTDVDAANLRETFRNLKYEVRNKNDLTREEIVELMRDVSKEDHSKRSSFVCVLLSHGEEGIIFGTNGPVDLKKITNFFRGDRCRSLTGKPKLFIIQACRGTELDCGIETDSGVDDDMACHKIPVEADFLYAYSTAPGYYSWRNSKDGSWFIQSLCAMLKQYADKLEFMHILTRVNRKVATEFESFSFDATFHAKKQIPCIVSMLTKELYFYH

[4] = target: T5, Long-chain-fatty-acid--AMP ligase FadD28 (Mycobacterium tuberculosis, UniProt P9WQ59); assay: Fluorescence polarization aasay to screen for inhibitors that compete for the binding of FadD28 to a bisubstrate Measured in Biochemical System Using Plate Reader - 2147-01_Inhibitor_Dose_CherryPick_Activity.; format: functional, Mycobacterium tuberculosis H37Rv
T5 sequence (P9WQ59 whole entry): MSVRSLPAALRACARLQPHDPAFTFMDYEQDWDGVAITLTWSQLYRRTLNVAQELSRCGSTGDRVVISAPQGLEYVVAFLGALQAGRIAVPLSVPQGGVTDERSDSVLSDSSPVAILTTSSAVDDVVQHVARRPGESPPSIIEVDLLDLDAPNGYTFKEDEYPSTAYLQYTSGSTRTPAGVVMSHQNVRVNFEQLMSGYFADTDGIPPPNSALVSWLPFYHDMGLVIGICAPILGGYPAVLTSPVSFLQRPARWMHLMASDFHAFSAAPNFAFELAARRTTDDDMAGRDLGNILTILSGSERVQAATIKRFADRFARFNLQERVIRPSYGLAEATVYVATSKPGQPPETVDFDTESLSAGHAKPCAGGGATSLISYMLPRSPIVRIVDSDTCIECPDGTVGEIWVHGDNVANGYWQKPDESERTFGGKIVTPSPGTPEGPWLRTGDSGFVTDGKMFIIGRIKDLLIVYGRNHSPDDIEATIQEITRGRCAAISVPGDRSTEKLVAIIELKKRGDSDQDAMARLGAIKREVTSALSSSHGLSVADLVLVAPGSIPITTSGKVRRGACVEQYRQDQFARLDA

[5] = target: T6, Polyadenylate-binding protein 1 (Homo sapiens, UniProt P11940); assay: PABP1 MLLE–PAM2 interaction inhibitors, dose response, miRNA deadenylation inhibitor project, biochemical, fluorescence polarization, Cy5-PAM2 peptide, secondary (AID 602260); format: functional; settings: read-out: IC50_Mean
[6] = target: T6, Polyadenylate-binding protein 1; assay: PABP1 MLLE–PAM2 binding inhibitor potency, dose response, biochemical, fluorescence polarization, FITC-PAM2 peptide (AID 602259); format: functional; settings: read-out: IC50_Mean
[7] = intracellular Trypanosoma cruzi inhibitors in host cells – cell-based, plate reader, cherry-pick samples, set 3, dose response (AID 651818); format: functional;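 also: compounds incubated with infected cells for about four days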
[8] = target: T7, Ubiquitin-conjugating enzyme E2 N (Homo sapiens, UniProt P61088); format: functional;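 also: Dose-response confirmation in a TR-FRET assay detecting UBC13-driven polyubiquitin chain formation, inhibition measured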
T7 sequence (P61088 whole entry): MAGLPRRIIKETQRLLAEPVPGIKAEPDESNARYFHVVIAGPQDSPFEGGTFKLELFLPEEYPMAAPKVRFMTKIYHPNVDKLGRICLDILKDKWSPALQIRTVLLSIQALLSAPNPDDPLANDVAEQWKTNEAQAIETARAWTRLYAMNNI

[9] = HEp-2 cell cytotoxicity, dose response, cytotoxicity control for RSV inhibitor project, HTS (AID 2410); format: functional; settings: human respiratory syncytial virus
Vero = assay: cells; format: functional; settings: Chlorocebus sabaeus
cells [10] = format: functional, cell-based
INS1 = assay: beta cell apoptosis inhibitors, cytokine rescue, dose response, luminescence, retest (AID 449756); format: functional, cell-based; settings: Rattus norvegicus;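 also: cell death triggered by IL-1 beta plus TNF-alpha plus IFN-gamma mixture; protective hits raise ATP signal compared with cytokine alone wells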
cells [11] = format: functional, cell-based; remark: listed apart in the source
[12] = cytotoxicity toward NIH3T3 fibroblasts, dose response, counter-screen, cell-based, ATP luminescence, mouse fibroblasts (AID 2010); format: functional;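 also: cells exposed to compound for about 90 hours before reading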
[13] = inhibitors of intracellular T. cruzi replication, confirmation, NIH3T3 host cells, beta-gal luminescence (AID 2044); format: functional, cell-based;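 also: intracellular parasites grown in NIH/3T3 mouse fibroblasts as host cells; luminescent beta-galactosidase reporter signal from transgenic T. cruzi replicating inside host cells; inhibitors lower the luminescence signal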
Caspase-6 = target: T8, Caspase-6 (Homo sapiens, UniProt P55212); assay: human caspase-6 inhibitors, dose response, biochemical, VEID-R110 fluorescence, cherry-pick (AID 720632)
T8 sequence (P55212 whole entry): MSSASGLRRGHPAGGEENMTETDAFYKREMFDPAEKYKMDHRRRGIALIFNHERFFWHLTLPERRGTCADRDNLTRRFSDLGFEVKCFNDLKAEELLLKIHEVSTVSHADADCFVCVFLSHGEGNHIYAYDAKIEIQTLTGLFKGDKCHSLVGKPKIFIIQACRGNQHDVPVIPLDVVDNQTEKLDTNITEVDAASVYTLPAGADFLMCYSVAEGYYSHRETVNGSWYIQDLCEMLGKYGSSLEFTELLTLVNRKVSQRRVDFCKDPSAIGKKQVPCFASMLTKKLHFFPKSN

T6 sequence (P11940 whole entry): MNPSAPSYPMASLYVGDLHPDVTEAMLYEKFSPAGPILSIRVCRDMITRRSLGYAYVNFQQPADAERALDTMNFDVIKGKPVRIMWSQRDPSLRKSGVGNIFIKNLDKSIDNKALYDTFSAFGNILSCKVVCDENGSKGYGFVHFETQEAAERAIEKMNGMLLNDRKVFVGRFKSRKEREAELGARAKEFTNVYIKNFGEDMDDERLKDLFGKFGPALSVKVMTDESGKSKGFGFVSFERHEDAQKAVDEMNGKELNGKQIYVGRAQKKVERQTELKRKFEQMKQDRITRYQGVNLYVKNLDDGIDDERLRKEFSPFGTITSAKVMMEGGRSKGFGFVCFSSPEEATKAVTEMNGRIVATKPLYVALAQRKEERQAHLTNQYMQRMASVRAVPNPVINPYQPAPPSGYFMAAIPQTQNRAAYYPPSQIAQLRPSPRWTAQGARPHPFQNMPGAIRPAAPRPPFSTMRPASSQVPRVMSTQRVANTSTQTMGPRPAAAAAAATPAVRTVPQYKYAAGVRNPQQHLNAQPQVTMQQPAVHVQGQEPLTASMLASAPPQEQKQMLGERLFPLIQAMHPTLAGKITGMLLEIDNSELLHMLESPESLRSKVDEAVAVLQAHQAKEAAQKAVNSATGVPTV

## CCN(CC)c1ccc(C(=O)OCC(=O)Nc2sccc2C#N)cc1
[1]
  IC50: 11.6 µM (active)
[2]
  IC50: 11.5 µM (active)
[3]
  IC50: 89.1 µM (active)
Caspase-3
  IC50: 37.3 µM (active)

## CCc1nc2ccc(C(=O)NCCCn3ccnc3)cn2c1N(C)Cc1cc2ccccc2s1
[4]
  AC50: 74.3 µM (active)

## COc1nccnc1NS(=O)(=O)c1ccc(NC(=S)NC(=O)c2ccc(F)cc2)cc1
[5]
  IC50: > 66 µM (inactive)
[6]
  IC50: > 66 µM (inactive)

## C[C@H]1CN([C@@H](C)CO)C(=O)c2cc(NC(=O)Nc3ccc(C(F)(F)F)cc3)ccc2O[C@H]1CN(C)Cc1ccc2c(c1)OCO2
[7]
  AC50: 4.18 µM (active)

## C[C@H]1CN([C@@H](C)CO)C(=O)Cc2cc(NC(=O)Cc3ccccc3)ccc2O[C@H]1CN(C)Cc1ccc(-c2ccccc2)cc1
[7]
  AC50: 2.79 µM (active)

## NC(=S)N=Nc1c(O)[nH]c2cc(F)c(F)cc12
[8]
  IC50: > 20 µM (inactive)
[5]
  IC50: > 66 µM (inactive)
[6]
  IC50: > 66 µM (inactive)
[9]
  CC50: 40 µM (active)

## O=C(Nc1ccccc1[N+](=O)[O-])c1cc(S(=O)(=O)N2CCOCC2)cs1
Vero
  CC50: 18.3 µM (active)

## COc1ccc(CNC(=O)CN(Cc2ccc(Cl)cc2)C(=O)c2csnn2)cc1
[5]
  IC50: > 66 µM (inactive)
[6]
  IC50: > 66 µM (inactive)

## CSC1=NC(/C=C/c2ccc(Cl)cc2Cl)=CC(C)(C)N1
Vero
  CC50: 17.4 µM (active)

## COc1ccc(S(=O)(=O)Nc2ccc3c(c2)CC(=O)N([C@@H](C)CO)C[C@H](C)[C@@H](CN(C)Cc2ccc(-c4ccccc4)cc2)O3)cc1
[7]
  AC50: 2.07 µM (active)

## O=C(CSC1c2ccccc2-c2ccccc21)N/N=C/c1ccccc1O
Cells [10]
  EC50: > 350 µM (not active)
INS1
  AC50: 2.03 µM (active)
[5]
  IC50: > 66 µM (inactive)
[6]
  IC50: > 66 µM (inactive)
Cells [11]
  EC50: 12.9 µM (active)
[12]
  EC50: 9.08 µM (active)
[13]
  EC50: 2.55 µM (active)

## C[C@@H]1CN([C@H](C)CO)C(=O)c2cc(NC(=O)Nc3cccc4ccccc34)ccc2O[C@H]1CN(C)Cc1ccc(-c2ccccc2)cc1
[7]
  AC50: 2.17 µM (active)

## O=C(O)c1ccccc1NS(=O)(=O)c1ccc(NN=Cc2cccc(Cl)c2)c([N+](=O)[O-])c1
Caspase-6
  AC50: 24.5 µM (active)

## C[C@@H]1CN([C@H](C)CO)C(=O)Cc2cc(NS(=O)(=O)c3ccc(Cl)cc3)ccc2O[C@@H]1CN(C)Cc1ccc(Cl)c(Cl)c1
[7]
  AC50: 3.44 µM (active)

## CCSc1nc(=S)n(-c2ccccc2)c(C)c1C(C)=O
[5]
  IC50: > 66 µM (inactive)
[6]
  IC50: > 66 µM (inactive)

## COc1ccc(-c2nc3cnccn3c2NC(C)(C)CC(C)(C)C)cc1O
Vero
  CC50: > 25 µM (active)

## O=C(NCc1ccccc1Cl)c1ccc2[nH]cnc2c1
Caspase-6
  AC50: 28.1 µM (active)

## Fc1cccc2sc(N3CCCCC3)nc12
[1]
  IC50: 7.98 µM (active)
[2]
  IC50: 30.3 µM (active)
[3]
  IC50: 60.5 µM (active)
Caspase-3
  IC50: 10.7 µM (active)

## COc1ccc(C(=O)NCCc2c[nH]c3ccccc23)cc1S(=O)(=O)N1CCCCC1C (stereo not drawn)
[4]
  AC50: 2.97 µM (active)

## C[C@@H]1CN([C@H](C)CO)C(=O)c2cccc(NS(=O)(=O)c3cccs3)c2O[C@@H]1CN(C)C(=O)Nc1ccc(C(F)(F)F)cc1
[7]
  AC50: 8.07 µM (active)
